The results in this text go back to patent US7538135B2, “Benzenesulfonylamino compounds and pharmaceutical compositions containing these compounds” (Novartis AG, priority 2003, dated 2009).

Assay [1] has as its target T1, GST-hPPARα LBD (Homo sapiens, UniProt Q07869).
T1 construct: made in house; host or cells: E. coli BL21(DE3)
T1 sequence (Q07869 167-468): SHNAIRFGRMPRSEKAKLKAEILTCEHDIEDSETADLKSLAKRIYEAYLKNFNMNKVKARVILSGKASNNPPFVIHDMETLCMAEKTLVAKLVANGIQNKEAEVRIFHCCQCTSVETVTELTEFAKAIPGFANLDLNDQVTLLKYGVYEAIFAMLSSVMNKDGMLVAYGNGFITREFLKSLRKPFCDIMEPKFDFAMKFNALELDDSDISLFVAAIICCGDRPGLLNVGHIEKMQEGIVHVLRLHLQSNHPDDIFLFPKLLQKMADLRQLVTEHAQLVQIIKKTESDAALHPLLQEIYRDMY
T1 sequence (Q15788 676-700 partner limits assumed): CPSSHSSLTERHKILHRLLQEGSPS
Briefly: PPARα receptor binding assay (CARLA, TR-FRET functional binding). Format: biochemical. The following applies: TR-FRET coactivator (SRC-1 peptide) recruitment, 3 hours at room temperature. As to the method:
(§1) The in vitro functional binding to the PPARα, PPARδ and PPARγ receptors is determined as follows:
(§2) The functional binding assays for the PPARα, PPARδ and PPARγ receptors are a variation of the coactivator-dependent receptor ligand assay (CARLA) (see Krey et al., “Fatty Acids, Eicosanoids, and Hypolipidemic Agents Identified as Ligands of Peroxisome Proliferator-Activated Receptors by Coactivator-Dependent Receptor Ligand Assay”, Molecular Endocrinology, Vol. 11, pp. 779-791 (1997)). The present CARLA assays use a TR-FRET detection method previously reviewed (see Hemmila, “LANCE: Homogeneous Assay Platform for HTS”, J. Biomol. Screening, Vol. 4, pp. 303-307 (1999); Mathis, “HTRF Technology”, J. Biomol. Screening, Vol. 4, pp. 309-313 (1999)). […] This brings the Eu-labeled anti-GST antibody and the strepavidin-labeled APC in close proximity, thereby facilitating fluorescence energy transfer. […] After mixing all components, the reaction mixture stands for 3 hours at room temperature before reading the TR-FRET (Time-Resolved Fluorescence Resonance Energy Transfer) signal on a Wallac Victor 2 plate reader (measuring the ratio of signals at […]). […]
For orientation: Time-resolved FRET reads energy transfer from a long-lived donor to a nearby acceptor.

The target in assay [2] is T2, GST-hPPARγ LBD (Homo sapiens, UniProt P37231).
T2 construct: GST-hPPARγ LBD (amino acids 175-476); made in house; host or cells: E. coli BL21(DE3)
T2 sequence (P37231 175-476 isoform P37231-2): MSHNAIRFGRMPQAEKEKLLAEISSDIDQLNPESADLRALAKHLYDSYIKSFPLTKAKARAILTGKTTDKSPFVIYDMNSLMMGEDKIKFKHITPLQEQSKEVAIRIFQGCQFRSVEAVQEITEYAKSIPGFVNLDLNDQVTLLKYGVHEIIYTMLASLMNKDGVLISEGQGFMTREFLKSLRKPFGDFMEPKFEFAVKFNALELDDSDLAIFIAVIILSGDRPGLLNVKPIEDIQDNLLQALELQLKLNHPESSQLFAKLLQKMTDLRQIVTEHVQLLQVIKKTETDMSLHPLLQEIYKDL
T2 sequence (Q15788 676-700 partner limits assumed): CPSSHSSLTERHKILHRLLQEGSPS
Put plainly: PPARγ receptor binding assay (CARLA, TR-FRET functional binding). It is filed as biochemical. The conditions noted are these: TR-FRET coactivator (SRC-1 peptide) recruitment, 3 hours at room temperature. As to the method:
as §1, §2

SMILES strings stand for the structures.

Broadly, the EC50 is the concentration giving half of the maximal effect. Read a high EC50 as weaker potency.

Take `CCOC(=O)c1cn(CC)nc1NS(=O)(=O)c1ccc(OCc2nc(-c3ccc(C(F)(F)F)cc3)oc2C)cc1` [Example 1, 1-Ethyl-3-{4-[5-methyl-2-(4-trifluoromethyl-phenyl)oxazol-4-ylmethoxy]-benzene-sulfonylamino}-1H-pyrazole-4-carboxylic acid ethyl ester]: the EC50 is ~5 nM in assay [1] and ~3 nM in assay [2].
